Test results reported in ChEMBL document CHEMBL3507680, “University of Dundee, Gates Library screen for HepG2 cell viability”.

Assay: Human HepG2 cell viability assay in 384 well format
Type: toxicity, cell-based
Parameters: dose 125 nL, time 70.5 hour; cytotoxicity at 70.5 h: concentration not given beside the values
Conditions: HepG2 cells, read-out: Inhibition

CCOC(=O)CN1CCC2(CCCN(CCOc3ccccc3)C2)C1 (configuration not stated)
cytotoxicity at 70.5 h: -16%

Cc1ccccc1C(=O)N1CCC2(CCC(C(=O)NCC3CC3)O2)CC1 (configuration not stated)
cytotoxicity at 70.5 h: -18.9%

CN1C(=O)CCCC12CCCN(C(=O)c1cc(F)cc(F)c1)C2 (configuration not stated)
cytotoxicity at 70.5 h: -9.55%

CN1C(=O)CCCC12CCCN(C(=O)c1ccoc1)C2 (configuration not stated)
cytotoxicity at 70.5 h: -10.6%

O=C(NCC1CC1)C1CCC2(CCN(C(=O)c3cnccn3)CC2)O1 (configuration not stated)
cytotoxicity at 70.5 h: 9.2%

CC(C)N1[C@@H](C(=O)NCC2CC2)C[C@@H]2CN(Cc3ccco3)C[C@@H]21
cytotoxicity at 70.5 h: -13.6%

CC[C@H]1N(Cc2ccc(OC)cc2)CCC[C@]12CCC(=O)N2C
cytotoxicity at 70.5 h: -13%

O=C(NCC1CC1)C1CCC2(CCN(C(=O)c3ccco3)CC2)O1 (configuration not stated)
cytotoxicity at 70.5 h: -15.5%

CC[C@H]1N(Cc2ccco2)CCC[C@]12CCC(=O)N2C
cytotoxicity at 70.5 h: -15.5%

C[C@@H]1CN(C(=O)c2ccccc2F)C[C@]12CCN(CCN(C)C)C2=O
cytotoxicity at 70.5 h: -13.1%

Cc1cc(C)cc(C(=O)N2CCCC3(CCCC(=O)N3C)C2)c1 (configuration not stated)
cytotoxicity at 70.5 h: -14.4%

O=C(CC1CC1)N1CCCC2(CCC(=O)N2CC2CC2)CC1 (configuration not stated)
cytotoxicity at 70.5 h: -8.2%

Cc1noc(C)c1CN1CCCC2(CCN(C(=O)N3CCOCC3)C2)C1 (configuration not stated)
cytotoxicity at 70.5 h: -8.84%

Cc1noc(C)c1CN1CCCC2(CCN(C(=O)C3CC3)C2)C1 (configuration not stated)
cytotoxicity at 70.5 h: -11.8%

Cc1nc(CN2CCC3(CC2)NC(=O)CC3c2cccnc2)cs1 (configuration not stated)
cytotoxicity at 70.5 h: -8.17%

O=C1COC2(CCN(Cc3ccco3)CC2)CN1Cc1cccnc1
cytotoxicity at 70.5 h: -7.11%

CCC(=O)N1CC[C@H](O)[C@@H]1Cc1ccccc1
cytotoxicity at 70.5 h: -9.02%

O=C([C@H]1CCCO1)N1CC[C@@H](O)[C@@H]1Cc1ccccc1
cytotoxicity at 70.5 h: -8.36%

COCCN1C(=O)CCC12CCN(C(=O)CNC(C)=O)CC2
cytotoxicity at 70.5 h: -8.47%

CCN1CC2(CCCCN2C(=O)c2ccsc2)CC1=O (configuration not stated)
cytotoxicity at 70.5 h: 2.62%

O=C1CC2(CCCCN2C(=O)c2ccccc2)CN1CC1CC1 (configuration not stated)
cytotoxicity at 70.5 h: 4.75%

CC(=O)N1CCc2nc(N3CCCC3)nc(C)c2C1
cytotoxicity at 70.5 h: -0.643%

Cc1nc(N2CCOCC2)nc2c1CN(C(=O)C(C)C)CC2
cytotoxicity at 70.5 h: 4.55%

Cc1nc(N2CCCC2)nc2c1CCN(C(=O)N1CCCC1)CC2
cytotoxicity at 70.5 h: -8.89%

Cc1nc(N2CCCC2)nc2c1CN(C(=O)NC(C)C)CC2
cytotoxicity at 70.5 h: -3.45%

CN(CC1CC1)c1ccc2ccc(C(=O)NCCc3ccccc3)cn12
cytotoxicity at 70.5 h: -12.6%

c1cc(-c2ccc3c(c2)CCC32CCNCC2)ccn1
cytotoxicity at 70.5 h: 26.1%

COCC(=O)N1CCc2nc(C(=O)N(C)C)sc2CC1
cytotoxicity at 70.5 h: 27.3%

Cc1occc1C(=O)N1CCCC2(CCN(c3ccccc3)C2=O)C1 (configuration not stated)
cytotoxicity at 70.5 h: 12.9%

CCC(CC)C(=O)N1CCN(C)c2ncccc2C1
cytotoxicity at 70.5 h: -2.64%

CO[C@H]1CN(Cc2ccccc2F)[C@@H]2CCCO[C@H]12
cytotoxicity at 70.5 h: -1.13%

O=C(c1ccco1)N1CCCC2(CCN(CCN3CCCC3)C2=O)C1 (configuration not stated)
cytotoxicity at 70.5 h: -3.97%

O=C(Cc1cccnc1)N1CCC2(CCN(C3CCOC3)CC2)C1 (configuration not stated)
cytotoxicity at 70.5 h: 20.9%

O=C(c1ccccn1)N1CCc2ncnc(N3CCOCC3)c2CC1
cytotoxicity at 70.5 h: -5.19%

CC(C)CNC(=O)N1C[C@H]2CC[C@@]3(N=C(c4ccccc4)NC3=O)[C@H]2C1
cytotoxicity at 70.5 h: -0.00686%

COCCn1cnc(-c2nc(C(=O)N3CCOCC3)c3ccccn23)c1
cytotoxicity at 70.5 h: 5.18%

CC(=O)N1CCCC2(CN(Cc3ccccc3C(F)(F)F)CCO2)C1 (configuration not stated)
cytotoxicity at 70.5 h: -2.98%

CC(=O)N1CCCC2(CN(Cc3ccncc3)CCO2)C1 (configuration not stated)
cytotoxicity at 70.5 h: -1.7%

CC(C)n1cnc(-c2nc(C(=O)N3CCN(C)CC3)c3ccccn23)c1
cytotoxicity at 70.5 h: -2.41%

CC(C)n1cnc(-c2nc(C(=O)N3CCCC3)c3ccccn23)c1
cytotoxicity at 70.5 h: -2.79%

c1ccc(O[C@@H]2CC[C@H]3[C@H]2OCCN3Cc2ccsc2)nc1
cytotoxicity at 70.5 h: 8.42%

O=C(C1CCOCC1)N1CCc2ncnc(-c3ccccc3)c2CC1
cytotoxicity at 70.5 h: 1.86%

CC(=O)N1CC2(CCNCC2)c2cc(Cl)ccc21
cytotoxicity at 70.5 h: -6.66%

Cn1cc(CN2CCc3c(CNC(=O)C4CC4)cncc3C2)cn1
cytotoxicity at 70.5 h: -1.11%

CC(=O)N1[C@H](CN(C)C)C[C@@H]2CN(C(=O)Cc3cccs3)CC[C@@H]21
cytotoxicity at 70.5 h: -21.3%

O=C(c1cccnc1)N1CCCC2(COCCN(c3ccccc3)C2)C1 (configuration not stated)
cytotoxicity at 70.5 h: -16%

O=C(CC1CC1)N1C[C@@H]2CCN(c3cccnc3)C[C@@H]2C1
cytotoxicity at 70.5 h: -11.6%

CC[C@@H]1N(Cc2nccs2)CCC[C@]12CCC(=O)N2C
cytotoxicity at 70.5 h: 9.06%

CCN1CCOCC2(CCCN(C(=O)c3ccncc3F)C2)C1 (configuration not stated)
cytotoxicity at 70.5 h: -3.01%

O=C(C1CCCCC1)N1C[C@@H]2CCN(c3cnccn3)C[C@@H]2C1
cytotoxicity at 70.5 h: -6.4%

CCN1CCOCC2(CCCN(C(=O)c3conc3C)C2)C1 (configuration not stated)
cytotoxicity at 70.5 h: -1.18%

C[C@@H]1CN(S(C)(=O)=O)C[C@]12CCN(Cc1cccnc1)C2=O
cytotoxicity at 70.5 h: 14.9%

COCCN1CCC2(CCN(c3ncccn3)CC2)C1=O
cytotoxicity at 70.5 h: 16.9%

Cc1ccc(CN2CCC3(CC2)NC(=O)CC3c2ccccc2)s1 (configuration not stated)
cytotoxicity at 70.5 h: -6.55%

CC(=O)N1CCN(Cc2ccc(C)o2)CC2(CC(=O)N(C)C2)C1 (configuration not stated)
cytotoxicity at 70.5 h: -4.13%

O=C(C1CCC1)N1CCC2(CCCN2CC2CC2)CC1
cytotoxicity at 70.5 h: -0.744%

COc1cccc(CN2CCCC3(CCN(C(=O)N4CCCC4)C3)C2)c1 (configuration not stated)
cytotoxicity at 70.5 h: -7.71%

CC(=O)N1[C@@H](C(=O)NCC2CC2)C[C@@H]2CN(Cc3nccs3)C[C@@H]21
cytotoxicity at 70.5 h: -9.23%

Cc1cccc(CN2CCC3(CC2)NC(=O)CC3c2ccccc2)n1 (configuration not stated)
cytotoxicity at 70.5 h: -7.81%

O=C1CC(c2ccccc2)C2(CCN(Cc3nccs3)CC2)N1 (configuration not stated)
cytotoxicity at 70.5 h: -9.09%

CN1CCOCC12CCN(C(=O)C1CCC1)CC2
cytotoxicity at 70.5 h: 1.58%

Cc1cccc(CN2C(=O)CCC23CCN(C(=O)c2ccco2)CC3)n1
cytotoxicity at 70.5 h: 0.736%

Cc1cccc(CN2C(=O)CCC23CCN(C(=O)N2CCCC2)CC3)n1
cytotoxicity at 70.5 h: 0.698%

CN1CCN(C(=O)CCc2ccccc2)Cc2cccnc21
cytotoxicity at 70.5 h: 16.1%

COCC1CN(C(=O)Cc2ccccn2)Cc2ncnn2C1 (configuration not stated)
cytotoxicity at 70.5 h: 16.8%

O=C1[C@H]2CN(Cc3ccccc3)C[C@H]2CN1c1cncnc1
cytotoxicity at 70.5 h: -2.62%

Cc1occc1C(=O)N1CCC2(CCN(Cc3cccs3)C2)CC1
cytotoxicity at 70.5 h: -1.13%

Cc1ccc(CN2Cc3nnn(C)c3C(COCC3CC3)C2)o1 (configuration not stated)
cytotoxicity at 70.5 h: -5.52%

O=C1[C@H]2CN(Cc3ccco3)C[C@H]2CN1c1cncnc1
cytotoxicity at 70.5 h: -5.56%

Cc1occc1C(=O)N1CCC2(CC1)CN(Cc1nccs1)CCO2
cytotoxicity at 70.5 h: 7.01%

Fc1cccc(-c2nnn3c2COC(CNCc2cccs2)C3)c1 (configuration not stated)
cytotoxicity at 70.5 h: 1.1%

CNC(=O)[C@H]1C[C@@H]2CN(S(=O)(=O)c3ccc(OC)cc3)C[C@@H]2N1C
cytotoxicity at 70.5 h: -1.32%

CNC(=O)[C@H]1C[C@@H]2CN(S(=O)(=O)c3ccc(C)c(F)c3)C[C@@H]2N1C
cytotoxicity at 70.5 h: -3.95%

O=C(Cc1ccccn1)N1CCc2ncnc(N3CCCC3)c2CC1
cytotoxicity at 70.5 h: -0.341%

COCc1nnc2n1CCN(Cc1ccoc1)C2
cytotoxicity at 70.5 h: -3.74%

Cc1ccsc1C(=O)N1CCCn2c(nc(CN(C)C)cc2=O)C1
cytotoxicity at 70.5 h: 8.58%

O=C(c1ccsc1)N1C[C@H]2CN(Cc3cccnc3)C(=O)[C@H]2C1
cytotoxicity at 70.5 h: 4.1%

Cc1ccc(C(=O)N2CC3(CCCCC3)c3cc(C(=O)O)ccc32)cn1
cytotoxicity at 70.5 h: 0.0823%

O=C(C1CCC1)N1CCC2(CCN(Cc3cccc(F)c3)CC2)CC1
cytotoxicity at 70.5 h: 18.6%

O=C(NC1CCCC1)[C@H]1CC[C@@H]2[C@@H](CCN2c2ncc(F)cn2)O1
cytotoxicity at 70.5 h: 13.4%

CC(=O)N1CCCC2(CN(Cc3ccc(C)s3)CCO2)C1 (configuration not stated)
cytotoxicity at 70.5 h: 0.871%

O=C(NC1CC1)N1CC[C@H](OCC2CC2)[C@@H]1Cc1cccnc1
cytotoxicity at 70.5 h: 1.68%

O=C1CC2(CCCCN2C(=O)Cc2ccccc2)CN1c1cccnc1 (configuration not stated)
cytotoxicity at 70.5 h: -1.11%

O=C(N1CCOCC1)N1CCc2ncnc(Oc3cccnc3)c2CC1
cytotoxicity at 70.5 h: -2.03%

Cc1noc(C)c1CN1C[C@@H]2C[C@H](C(=O)NCC3CC3)N(C)[C@@H]2C1
cytotoxicity at 70.5 h: -11.9%

Cc1cccc(CN2C(=O)C[C@H]3[C@@H]2CCN3Cc2ccco2)n1
cytotoxicity at 70.5 h: -11.7%

CC[C@@H]1N(Cc2cccnc2)CCC[C@]12CCC(=O)N2C
cytotoxicity at 70.5 h: -12.1%

CC(C)NC(=O)CC1COC2(CCN(Cc3cccnc3)CC2)C1 (configuration not stated)
cytotoxicity at 70.5 h: -12.2%

CC[C@@H]1N(Cc2ccncc2)CCC[C@]12CCC(=O)N2C
cytotoxicity at 70.5 h: -20.1%

Cc1cccc(CN2C(=O)C[C@H]3[C@@H]2CCN3Cc2ccc(F)cc2)n1
cytotoxicity at 70.5 h: -2.72%

CN(C)CCN1CCCC12CCN(C(=O)c1ccoc1)CC2
cytotoxicity at 70.5 h: -9.15%

Cc1noc(C)c1CN1C[C@H](C)[C@]2(CCN(Cc3cccnc3)C2=O)C1
cytotoxicity at 70.5 h: -8.9%

CN(C)CCN1CCCC12CCN(C(=O)c1ccncc1)CC2
cytotoxicity at 70.5 h: -7.81%

COc1cc(C(=O)N2CC3(CCNCC3)c3cc(Cl)ccc32)ccn1
cytotoxicity at 70.5 h: -6.87%

Cc1cccc(CN2CCCC3(CCC(=O)N3CCN(C)C)CC2)n1 (configuration not stated)
cytotoxicity at 70.5 h: -3.65%

COCC1CN(Cc2ccc(C)o2)Cc2cnn(CC3CCOCC3)c21 (configuration not stated)
cytotoxicity at 70.5 h: 6.49%

c1cncc(COCc2nnc3n2CCN(Cc2ccco2)C3)c1
cytotoxicity at 70.5 h: 1.97%

c1ccc(O[C@@H]2CC[C@H]3[C@H]2OCCN3CC2CCOCC2)nc1
cytotoxicity at 70.5 h: 1.68%

c1ccc(CO[C@H]2CC[C@H]3[C@H]2OCCN3Cc2nccs2)nc1
cytotoxicity at 70.5 h: 1.15%

Cc1cccc(CN2CCC3(CCN(c4cccnc4)C3=O)C2)n1 (configuration not stated)
cytotoxicity at 70.5 h: 2.95%

Cc1noc(C)c1CN1CCO[C@H]2[C@H](Oc3ccccn3)CC[C@@H]21
cytotoxicity at 70.5 h: -0.309%

c1ccc(O[C@@H]2CN(Cc3nccs3)[C@@H]3CCCO[C@@H]32)nc1
cytotoxicity at 70.5 h: 1.57%

O=C1N(c2cccnc2)CCC12CCCN(Cc1ccco1)C2 (configuration not stated)
cytotoxicity at 70.5 h: -3.89%

COc1ccc(CN2CCO[C@H]3[C@H](Oc4ccccn4)CC[C@@H]32)cc1
cytotoxicity at 70.5 h: -2.38%

COc1ncccc1CN1C[C@H]2C[C@@H](C(=O)NCC3CC3)N(C)[C@H]2C1
cytotoxicity at 70.5 h: -12.9%

C[C@@H]1CN(Cc2cccnc2)C[C@]12CCN(CCN1CCCC1)C2=O
cytotoxicity at 70.5 h: -4.97%

O=C1N(c2cccnc2)CCC12CCCN(Cc1cccnc1)C2 (configuration not stated)
cytotoxicity at 70.5 h: -4.25%
